Starred links: 1 amine or outer side, 2 acyl side, 3 side chain; linkers in the order of their positions; H or OH if unused. Residues, ends and D or L forms follow the SMILES beside them. *: point of attachment. X1 = CC(C)(C)c1cc(C(=O)*)cc(C(C)(C)C)c1O; Suc = O=C(CCC(=O)[*:2])[*:1]
Tests used:
[1] = Surface tension of an oscillating bubble in a pulsating bubble surfactometer; type: physicochemical; conditions: after 10 min of pulsing, 37° C.
Description: Surface Tension Measurements. The minimum and maximum surface tension of an oscillating bubble were measured on samples at 37° C. with a cycle rate of 20 per min in a pulsating bubble surfactometer (PBS, Electronetics Corp.), essentially as described by Enhorning, J. Appl. Physiol 43:198-203 (1977). The plastic cample chamber was rinsed with a dilute solution of dishwashing detergent, thoroughly rinsed with water and dried under a stream of N2 prior to use.

[2] = test system: surfactant-deficient lavaged adult rat lungs; test: Isolated rat lavaged lung model (pressure-volume deflation curves); type: in vivo; conditions: for effect on the pressure-volume (P-V) curve of the lavaged lung: statement in words
Source text: Methods of testing the synthetic surfactant preparations for efficacy are well known in the art. For example, the synthetic surfactant preparations of the present invention can be tested in any appropriate manner such as in the adult rat lung model (Ikegami, et al., (1979) Pediatr. Res. 13, 777-780).
Pressure-volume characteristics of surfactant-depleted rat lungs are similar to those of lungs of infants with hyaline membrane disease and restoration of the pressure-volume relationship of the lung to normal is related to the amount of surfactant instilled in a dose dependent manner. (Bermel, M. S., et al., Lavaged excised rat lungs as a model of surfactant deficiency, Lung 162:99-113 (1984)).
Isolated Rat Lavaged Lung Model. The experimental procedures for animal preparation, pressure-volume curve registration and lung lavage were adapted from those described by Ikegami et al., Pediatr. Res. 11:178-182 (1977) and Pediatr. Res. 13:777-780 (1979, and Bermel et al, Lung 162:99-113 (1984). Male Sprague Dawley rats (200-250 g) were anesthetized with sodium pentobarbital and exsanguinated. The trachea was cannulated and the thoracic organs were removed en bloc. After removal of the adventitious tissue, the trachea and lungs (~2 g) were suspended in saline (0.9%), placed in a vacuum chamber, and degassed according to the procedure of Stengel et al. the degassed lungs were suspended in saline in a 37° C., jacketed reservoir and the tracheal cannula was connected both to a water manometer and a glass syringe by a T-tube. The glass syringe was placed in an infusion/withdrawal pump. Lungs were rapidly inflated with air to 30 cm H2 O pressure at the rate of 10 ml/min to minimize air trapping, and were maintained at this pressure for 10 min by intermittently adding air to the lungs. The total volume of air infused was recorded as the total lung capacity (TLC) which was generally 14-15 ml. The lungs were then deflated at a rate of 2.5 ml/min until zero pressure was attained. During deflation, pressure was read from the water manometer at 1 cm intervals and recorded. […] After degassing and equilibration, the lungs were rendered surfactant-deficient by repeated lavage with 5 ml/g lavage buffer (0.9% NaCl, 10 mM HEPES, pH 7.4). The procedures of degassing, equilibrating, and lavaging were repeated (15-20 times) until the pressure-volume curve had become distinctly sigmoidal in shape and the volume of air remaining in the lungs at 5 cm H2 O pressure was less than or equal to 3 ml. At this point, the lungs were considered surfactant-deficient. For testing, 2 ml of 0.9% NaCl, 10 mM HEPES buffer, pH 7.4, were added to the dry lung surfactants (25 mg of phospholipid; 100-125 mg/kg) and the mixture was vortexed, flushed with nitrogen and incubated for 1 h at 45° C. The mixture was then vortexed again, degassed if foamy, and 2 ml of the test mixture were introduced into and withdrawn from the lungs four times by syringe. When the test mixture was reintroduced to the lungs for the fifth time, it was allowed to remain in the lungs. This procedure was adopted to encourage even distribution of the material throughout the lung. The lungs were degassed, allowed to equilibrate at 37° C. for 5 min, and a P-V measurement was performed. […] The deflation limbs of the pressure-volume (P-V) curves in adult rat lungs were analyzed by calculating the total lung capacities (%TLC) at 5 and 10 cm H2 O pressure (PC5 and PC10).

[3] = CD spectra: conformation of peptides in water and TFE; type: physicochemical; conditions: fits ±3% (SEM of fit)
Description: CD Spectra. Circular dichroic (CD) spectra of samples in 1 mm circular cuvettes were recorded at room temperature on a Jasco J-500A Spectropolarimeter with 2 nm slit width. The CD spectrum of buffer was subtracted from the CD spectrum of the sample after each scan. The scan rate is 2 nm/min and the time constant was 8 sec. Data was collected at 0.04 nm intervals and averaged over a 0.2 nm interval.

[4] = test system: soy phosphatidyl-choline (PC); test: Antioxidant activity: inhibition of Fe-initiated lipid peroxidation (TBARs); type: biochemical
Description: Antioxidant Activity. Peptides were dissolved in trifluoroethanol (TFE) and mixed with soy phosphatidyl-choline (PC) in chloroform. After drying under a N2 stream, the mixture was resuspended in ethanol and injected into buffer (50 mM NaCl, 50 mM Tris-HCl, pH 7.0) to obtain a final concentration of 0.5 mM phospholipid. Peroxidation was initiated with 50 μM Fe^2+ plus a mixture of 50 μM Fe^3+ and 250 μM histidine. At intervals over a period of 15 min at 37° C., 1 mL samples of the reaction mixture were taken for determination of TBARs (thiobarbituric acid reactive substances). Two mL of a mixture of 2 parts of 0.67% thiobarbituric acid/0.05N NaOH and 1 part of 10% trichloroacetic acid and 0.05 mL of 2% butylated hydroxytoluene were added. Reaction proceeded for 30 min at 100° C. The tubes were then cooled, centrifuged for 15 min at 3000 rpm and transferred to acrylic cuvettes. The differences in absorbance at 532 nm and 700 nm (to correct for light scattering) were measured and the TBARs were calculated in units of malondialdehyde equivalents using a molar extinction coefficient of 1.56×10^5 M^-1 cm^-1.

[5] = water, fit to standard spectra of Greenfield & Fasman

γmin (minimum surface tension) ([1]; unsonicated liposomes) | γmin (minimum surface tension) ([1]; mixture with DPPC, 20 cycles per min) | SMILES | PC5 (% TLC at 5 cm H2O) ([2]; no dose given, mean ± SEM, n=4) | PC10 (% TLC at 10 cm H2O) ([2]; no dose given, mean ± SEM, n=4) | restoration (based on PC5) ([2]; no dose given, relative to sufficient and deficient measurements on the same lungs, mean ± SEM) | effect on the pressure-volume (P-V) curve of the lavaged lung [2] | Conformation based on CD spectra: α ([3]; TFE, first TFE column) | Conformation based on CD spectra: α (second TFE column) ([3]; TFE, second TFE column) | Conformation based on CD spectra: α [3, 5] | Conformation based on CD spectra: β [3, 5] | antioxidant activity (inhibition of lipid peroxidation) ([4]; in soy PC mixtures, 50 μM Fe2+ plus 50 μM Fe3+/250 μM histidine, 37° C., 15 min) | time for which oxidation is totally inhibited ([4]; 0.6% (by weight), added to WMAP10 in soy PC mixtures, data not shown)
38 mN/m |  | CCCCCCCCCCCCCCCC(=O)OC[C@H](COP(=O)([O-])OCC[N+](C)(C)C)OC(=O)CCCCCCCCCCCCCCC [DPPC, dipalmitoylphosphatidylcholine] | 13 ± 1 % TLC | 31 ± 2 % TLC | -11 ± 8% | no significant effect |  |  |  |  |  | 
 |  | CC(C)C[C@H](NC(=O)CCC(=O)O)C(=O)N[C@@H](CC(C)C)C(=O)N[C@@H](CCC(=O)O)C(=O)N[C@@H](CCCCN)C(=O)N[C@@H](CC(C)C)C(=O)N[C@@H](CC(C)C)C(=O)N[C@@H](CCC(=O)O)C(=O)N[C@@H](CCCCNC(=O)c1cc(C(C)(C)C)c(O)c(C(C)(C)C)c1)C(=O)N[C@@H](CC(C)C)C(=O)N[C@@H](CCCCN)C(N)=O [HBB-LysMAP10, Suc-Leu-Leu-Glu-Lys-Leu-Leu-Glu-Ne-HBB-Lys-Leu-Lys-NH2] (Suc-LLEKLLEK(X1)LK-NH2) |  |  |  |  | 78 | 0 | 59 | 4 | effective antioxidants | 
 | slightly increased | CC(C)(Sc1cc(C(C)(C)C)c(O)c(C(C)(C)C)c1)Sc1cc(C(C)(C)C)c(O)c(C(C)(C)C)c1 [Probucol] |  |  |  | does not diminish the activity |  |  |  |  |  | at least 8 min

Reference: patent publication US5683982A, “Synthetic lung surfactant having antioxidant properties” (Merrell Pharmaceuticals Inc., priority 1995, dated 1997)
